# Literature values in patent US20130190499A1, “Azaisoquinolinone derivatives as NK3 antagonists” (H. Lundbeck A/S, priority 2010, published 2013).
# Target: T1, NK3 (Homo sapiens, UniProt P29371)
# T1 sequence (P29371 1-465): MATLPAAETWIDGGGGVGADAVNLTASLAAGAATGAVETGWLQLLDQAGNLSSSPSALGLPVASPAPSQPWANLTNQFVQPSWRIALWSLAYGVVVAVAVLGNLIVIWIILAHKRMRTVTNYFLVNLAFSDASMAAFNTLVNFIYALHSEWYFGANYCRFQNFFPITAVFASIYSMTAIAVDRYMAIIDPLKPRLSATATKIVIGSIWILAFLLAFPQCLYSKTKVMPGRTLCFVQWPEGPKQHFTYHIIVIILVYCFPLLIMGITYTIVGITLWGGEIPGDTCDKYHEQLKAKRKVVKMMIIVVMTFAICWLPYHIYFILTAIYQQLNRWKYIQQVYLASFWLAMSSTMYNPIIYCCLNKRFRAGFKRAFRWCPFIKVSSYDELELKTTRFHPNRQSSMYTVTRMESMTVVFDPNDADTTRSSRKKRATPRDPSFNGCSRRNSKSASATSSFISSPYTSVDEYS
SMILES,"Effect in clinical trials, in particular on positive symptoms of psychosis (versus placebo, delusions, hallucinations and paranoia)",Effect in clinical trials on cognitive behaviour of schizophrenics (schizophrenics)
CC(=O)N(C)C1(c2ccccc2)CCN(CCC[C@]2(c3ccc(Cl)c(Cl)c3)CCCN(C(=O)c3ccccc3)C2)CC1 [Osanetant],superior to placebo,
CC[C@H](NC(=O)c1c(O)c(-c2ccccc2)nc2ccccc12)c1ccccc1 [talnetant],,ameliorate the cognitive behaviour of schizophrenics
